Experimental data reported in ChEMBL document CHEMBL4229327, “Chemical Approaches to Modulating Complement-Mediated Diseases” (J Med Chem, 2018).
Blank lines part the entries; values can stand above or below the compound they belong to. Bridge positions count the residues as written; N and C are the ends. Peptide text beside a SMILES is read from it.

How the values were obtained:
[1] = Binding affinity to C1q (unknown origin) by SPR method; parameters: species or system Homo sapiens
[2] = biological target: T1, Complement C1s subcomponent (Homo sapiens, UniProt P09871); assay: Inhibition of C1s (unknown origin) using Cbz-Gly-Arg-S-Bzl as substrate preincubated with substrate for 15 mins followed by enzyme addition and measured after 5 mins
T1 sequence (P09871 whole entry): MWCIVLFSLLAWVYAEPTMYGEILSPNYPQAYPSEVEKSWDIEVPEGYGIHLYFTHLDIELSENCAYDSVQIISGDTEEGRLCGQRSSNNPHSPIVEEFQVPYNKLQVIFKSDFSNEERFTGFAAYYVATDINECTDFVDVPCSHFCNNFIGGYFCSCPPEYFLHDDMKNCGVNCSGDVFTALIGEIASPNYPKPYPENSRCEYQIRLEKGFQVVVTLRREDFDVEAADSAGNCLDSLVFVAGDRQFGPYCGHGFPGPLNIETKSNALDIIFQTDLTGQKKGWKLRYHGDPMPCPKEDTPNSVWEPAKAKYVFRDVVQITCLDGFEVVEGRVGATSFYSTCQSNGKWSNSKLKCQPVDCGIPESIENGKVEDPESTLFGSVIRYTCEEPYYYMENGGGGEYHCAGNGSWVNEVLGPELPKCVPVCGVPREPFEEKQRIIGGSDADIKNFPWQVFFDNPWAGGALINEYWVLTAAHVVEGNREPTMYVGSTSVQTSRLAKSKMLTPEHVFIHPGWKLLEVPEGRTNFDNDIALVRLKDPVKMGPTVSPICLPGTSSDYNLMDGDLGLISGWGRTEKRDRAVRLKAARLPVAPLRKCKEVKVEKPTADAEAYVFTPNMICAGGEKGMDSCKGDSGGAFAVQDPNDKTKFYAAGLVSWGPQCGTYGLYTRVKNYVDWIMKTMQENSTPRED

[3] = Inhibition of bovine trypsin esterolytic activity using Na-benzoyl-L-Arg-nitroanalide as substrate; parameters: species or system Bos taurus
[4] = Inhibition of rat serum alternative complement system-mediated lysis of guinea pig erythrocytes
[5] = Selectivity ratio of IC50 for rat serum alternative complement system-mediated lysis of guinea pig erythrocytes to IC50 for human serum C1s-mediated lysis of rabbit Ab-sensitized sheep erythrocytes after 60 mins
[6] = biological target: T2, Complement C1r subcomponent (Homo sapiens, UniProt P00736); assay: Inhibition of human serum C1r using AAME as substrate after 30 mins
T2 sequence (P00736 whole entry): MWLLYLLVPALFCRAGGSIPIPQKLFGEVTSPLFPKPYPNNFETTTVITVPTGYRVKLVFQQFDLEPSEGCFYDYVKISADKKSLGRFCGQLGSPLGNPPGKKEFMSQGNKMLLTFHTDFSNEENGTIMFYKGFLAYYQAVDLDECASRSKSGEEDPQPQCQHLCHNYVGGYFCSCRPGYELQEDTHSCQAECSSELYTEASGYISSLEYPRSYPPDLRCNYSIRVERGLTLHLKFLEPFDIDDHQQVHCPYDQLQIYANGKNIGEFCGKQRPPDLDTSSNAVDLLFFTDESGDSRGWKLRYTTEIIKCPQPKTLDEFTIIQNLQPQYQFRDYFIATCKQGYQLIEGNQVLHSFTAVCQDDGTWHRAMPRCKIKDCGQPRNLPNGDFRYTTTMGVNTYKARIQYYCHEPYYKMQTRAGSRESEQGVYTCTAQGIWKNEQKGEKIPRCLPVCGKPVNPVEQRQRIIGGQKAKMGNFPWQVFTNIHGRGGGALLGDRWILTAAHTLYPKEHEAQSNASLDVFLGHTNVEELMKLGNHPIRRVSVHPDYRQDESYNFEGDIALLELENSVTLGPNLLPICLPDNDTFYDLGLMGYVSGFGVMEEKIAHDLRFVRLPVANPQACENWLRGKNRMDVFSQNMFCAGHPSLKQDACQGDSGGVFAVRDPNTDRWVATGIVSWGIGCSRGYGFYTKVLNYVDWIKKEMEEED

[7] = biological target: T1, Complement C1s subcomponent; assay: Inhibition of human serum C1s using AGLME as substrate after 30 mins
[8] = biological target: T3, Mannan-binding lectin serine protease 1 (Homo sapiens, UniProt P48740); assay: Inhibition of recombinant […] fragment of MASP-1 (unknown origin)
T3 sequence (P48740 whole entry): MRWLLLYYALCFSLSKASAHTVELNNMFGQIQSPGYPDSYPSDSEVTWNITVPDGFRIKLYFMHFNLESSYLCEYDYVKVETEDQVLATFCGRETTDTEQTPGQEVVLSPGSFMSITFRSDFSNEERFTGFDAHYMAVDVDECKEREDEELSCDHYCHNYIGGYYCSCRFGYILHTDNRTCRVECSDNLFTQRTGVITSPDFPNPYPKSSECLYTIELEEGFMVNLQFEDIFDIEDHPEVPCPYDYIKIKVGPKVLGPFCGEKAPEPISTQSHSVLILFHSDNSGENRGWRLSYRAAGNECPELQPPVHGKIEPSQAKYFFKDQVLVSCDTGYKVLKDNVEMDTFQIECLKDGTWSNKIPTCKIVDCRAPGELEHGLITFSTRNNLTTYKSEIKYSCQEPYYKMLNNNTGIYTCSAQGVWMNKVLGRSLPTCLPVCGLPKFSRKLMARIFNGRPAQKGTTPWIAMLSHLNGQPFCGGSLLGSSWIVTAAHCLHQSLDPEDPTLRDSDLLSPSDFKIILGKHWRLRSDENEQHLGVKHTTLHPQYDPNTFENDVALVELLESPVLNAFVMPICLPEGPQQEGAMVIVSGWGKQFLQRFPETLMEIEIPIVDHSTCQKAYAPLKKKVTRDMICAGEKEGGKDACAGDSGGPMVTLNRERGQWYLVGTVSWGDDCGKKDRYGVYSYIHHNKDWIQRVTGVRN

[9] = biological target: T3, Mannan-binding lectin serine protease 1; assay: Inhibition of MASP1 (unknown origin)-induced lectin pathway by ELISA
[10] = biological target: T2, Complement C1r subcomponent; assay: Inhibition of human plasma C1r using Cbz-Gly-Arg-S-Bzl as substrate preincubated for 10 mins followed by substrate addition and measured after 30 mins by DTNB reagent-based two-beam microtiter plate photometer
[11] = biological target: T1, Complement C1s subcomponent; assay: Inhibition of human plasma C1s using Cbz-Gly-Arg-S-Bzl as substrate preincubated for 10 mins followed by substrate addition and measured after 30 mins by DTNB reagent-based two-beam microtiter plate photometer
[12] = Inhibition of guinea pig C1q-mediated sheep RBC lysis; parameters: species or system Cavia porcellus
[13] = Inhibition of human plasma C1q-mediated rabbit RBC lysis after 60 mins
[14] = Inhibition of chimpanzee serum C1q-mediated rabbit RBC lysis after 60 mins; parameters: species or system Pan troglodytes
[15] = Inhibition of rhesus monkey serum C1q-mediated rabbit RBC lysis after 60 mins; parameters: species or system Macaca mulatta
[16] = Inhibition of rat serum C1q-mediated rabbit RBC lysis after 60 mins
[17] = Inhibition of mouse serum C1q-mediated rabbit RBC lysis after 60 mins
[18] = biological target: T3, Mannan-binding lectin serine protease 1; assay: Inhibition of MASP-1 (unknown origin) using Z-L-LysSBzl hydrochloride as substrate preincubated for 1 hr followed by substrate addition
[19] = biological target: T4, Mannan-binding lectin serine protease 2 (Homo sapiens, UniProt O00187); assay: Inhibition of MASP-2 (unknown origin) using Z-L-LysSBzl hydrochloride as substrate preincubated for 1 hr followed by substrate addition
[20] = biological target: T4, Mannan-binding lectin serine protease 2; assay: Inhibition of MASP-2-mediated C4 deposition in human serum after 1 hr by ELISA
[21] = biological target: T3, Mannan-binding lectin serine protease 1; assay: Inhibition of MASP-1-mediated C3 deposition in human serum after 30 mins by ELISA

T4 sequence (O00187 16-444 limits assumed): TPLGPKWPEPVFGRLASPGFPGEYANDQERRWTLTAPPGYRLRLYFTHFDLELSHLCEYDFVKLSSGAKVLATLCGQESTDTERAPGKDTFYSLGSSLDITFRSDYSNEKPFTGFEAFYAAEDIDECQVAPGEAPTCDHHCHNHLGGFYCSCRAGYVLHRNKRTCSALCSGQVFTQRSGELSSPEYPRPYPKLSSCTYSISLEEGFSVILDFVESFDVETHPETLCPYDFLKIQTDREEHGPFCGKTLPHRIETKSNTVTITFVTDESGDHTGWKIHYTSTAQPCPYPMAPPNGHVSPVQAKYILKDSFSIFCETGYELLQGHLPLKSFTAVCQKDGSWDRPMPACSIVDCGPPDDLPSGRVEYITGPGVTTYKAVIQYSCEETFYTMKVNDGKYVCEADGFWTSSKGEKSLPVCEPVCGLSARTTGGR
T4 sequence (O00187 445-686 limits assumed): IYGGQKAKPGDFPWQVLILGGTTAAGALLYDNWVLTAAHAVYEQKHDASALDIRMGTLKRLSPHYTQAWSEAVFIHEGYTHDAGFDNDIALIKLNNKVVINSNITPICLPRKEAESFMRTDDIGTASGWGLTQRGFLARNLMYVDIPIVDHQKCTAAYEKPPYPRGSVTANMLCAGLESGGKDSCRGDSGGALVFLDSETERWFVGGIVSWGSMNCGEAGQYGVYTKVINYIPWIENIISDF

Structure (SMILES): CC[C@H](C)[C@H](N)C(=O)N[C@@H](C)C(=O)N[C@@H](CC(C)C)C(=O)N[C@H](C(=O)N[C@@H](CC(C)C)C(=O)N[C@@H](CCC(=O)O)C(=O)N1CCC[C@H]1C(=O)N[C@H](C(=O)N[C@@H](CS)C(=O)N[C@@H](CS)C(=O)N[C@@H](CCC(N)=O)C(=O)N[C@@H](CCC(=O)O)C(=O)N[C@@H](CCCNC(=N)N)C(=O)N[C@@H](C)C(=O)N[C@@H](C)C(=O)O)[C@@H](C)CC)[C@@H](C)CC
Kd [1]: 33 nM

Ki [2]: 30 nM
Structure (SMILES): CSc1sc(C(=N)N)cc1-c1nc(-c2cccc(NS(=O)(=O)c3ccc(F)cc3F)c2)cs1

IC50 [3]: 326 nM
IC50 [4]: 330 nM
Structure (SMILES): N=C(N)c1cc2ccc(OC(=O)c3cccs3)cc2s1
Ratio IC50 [5]: 7

IC50 [6]: 800 nM
IC50 [7]: 29 nM
Structure (SMILES): N=C(N)c1ccc2cc(OC(=O)c3ccc(N=C(N)N)cc3)ccc2c1 [NAFAMOSTAT]

Ki [8]: 7 nM
IC50 [9]: 42 nM
Structure (SMILES): CC(C)C[C@H](NC(=O)[C@H](CCCCN)NC(=O)[C@H](CCCNC(=N)N)NC(=O)[C@@H](NC(=O)[C@H](CS)NC(=O)[C@H](Cc1ccccc1)NC(=O)[C@H](C)NC(=O)[C@H](CO)NC(=O)[C@H](CCCCN)NC(=O)CNC(=O)[C@H](CC(=O)O)NC(=O)[C@H](CO)NC(=O)CNC(=O)[C@H](CS)NC(=O)[C@H](CCCNC(=N)N)NC(=O)[C@H](CS)NC(=O)[C@@H](NC(=O)[C@H](CC(N)=O)NC(=O)[C@H](CS)NC(=O)[C@H](CCCCN)NC(=O)[C@H](CC(=O)O)NC(=O)[C@H](CCCCN)NC(=O)[C@H](Cc1ccccc1)NC(=O)[C@@H](NC(=O)[C@@H](NC(=O)CNC(=O)[C@@H]1CCCN1C(=O)[C@H](CCC(=O)O)NC(=O)[C@H](CS)NC(=O)[C@@H](NC(=O)[C@@H](N)C(C)C)[C@@H](C)O)[C@@H](C)O)[C@@H](C)O)[C@@H](C)O)[C@@H](C)O)C(=O)N[C@@H](CS)C(=O)N[C@@H](Cc1ccc(O)cc1)C(=O)N[C@@H](CCC(N)=O)C(=O)O (H-VTCEPGTTFKDKCNTCRCGSDGKSAFCTRKLCYQ-OH)

IC50 [10]: 600 nM
IC50 [11]: 900 nM
Structure (SMILES): CC(C)[C@@H](NC(=O)Cc1c(Cl)cccc1Cl)C(=O)N1CC=CC1C(=O)NCc1ccc(C(=N)N)s1 (stereo partly specified)

IC50 [12]: 166000 nM
Structure (SMILES): CC(=O)N[C@@H](C)C(=O)N[C@@H](CCC(=O)O)C(=O)N[C@@H](C)C(=O)N[C@@H](CCCCN)C(=O)N[C@@H](C)C(=O)N[C@@H](CCCCN)C(=O)N[C@@H](C)C(N)=O (Ac-AEAKAKA-NH2)

IC50 [13]: 2000 nM
IC50 [14]: 2000 to 6000 nM
IC50 [15]: 2000 to 6000 nM
IC50 [16]: 2000 to 6000 nM
IC50 [17]: 2000 to 6000 nM
Structure (SMILES): CC(C)C[C@@H]1NC(=O)[C@H](CC(=O)O)NC(=O)[C@H](Cc2c[nH]cn2)NC(=O)[C@H](CCCNC(=N)N)NC(=O)[C@@H]2CCCN2C(=O)CNC(=O)[C@H](Cc2ccccc2)NC(=O)[C@@H]2CCCN2C(=O)CNC(=O)[C@H](CCC(=O)O)NC(=O)[C@@H](N)CSSC[C@@H](C(=O)N[C@@H](Cc2c[nH]c3ccccc23)C(=O)O)NC(=O)[C@H](Cc2ccccc2)NC(=O)[C@H]([C@@H](C)O)NC1=O (H-CEGPFGPRHDLTFCW-OH; disulfide 1-14)

Structure (SMILES): CC[C@H](C)[C@H](NC(=O)CN)C(=O)N[C@@H](CS)C(=O)N[C@@H](CO)C(=O)N[C@@H](CCCNC(=N)N)C(=O)N[C@@H](CO)C(=O)N[C@@H](CC(C)C)C(=O)N1CCC[C@H]1C(=O)N1CCC[C@H]1C(=O)N[C@H](C(=O)N[C@@H](CS)C(=O)N[C@H](C(=O)N1CCC[C@H]1C(=O)N[C@@H](CC(=O)O)C(=O)O)[C@@H](C)CC)[C@@H](C)CC (H-GICSRSLPPICIPD-OH)
Ki [18]: 65 nM
Ki [19]: 1030 nM
IC50 [20]: 230 nM
IC50 [21]: 40 nM
